Values of other authors, collected in US20240252571A1, “Hemp Essential Oil” (priority 2023, published 2024).
Entries after “also recorded” stand apart in the source; their conditions may differ. Read-outs that look alike come from different tables or passages of the source. Where a SMILES comes first, the peptide text is derived from it.

Tests used:
SZ95 sebocytes [1] = tested on: SZ95 sebocytes
SZ95 sebocytes [2] = conditions: for effect on the lipid synthesis-inhibitory (lipostatic) action of CBD: coapplication with CBD
mild AD = conditions: pediatric population
[3] = tested on: Methicillin-resistant Staphylococcus epidermidis (MRSE)
[4] = tested on: Methicillin-resistant Staphylococcus aureus (MRSA)
Enterococcus faecalis = conditions: E. faecalis
human sebaceous glands = conditions: ex vivo hSOC
[5] = CBD 1-10% gel, monoarthritic rat; plasma concentration linear with dose
[6] = tested on: Normal Human Epidermal Keratinocytes (NHEK); conditions: HMOX1 most upregulated
[7] = tested on: intracellular calcium concentration of SZ95 sebocytes; conditions: for effect on the CBD-induced increase of [Ca2+]IC: with CBD
[8] = tested on: ionic currents of SZ95 sebocytes; conditions: CBD 10 μM, voltage ramp, -90 and +90 mV
Listeria monocytogenes = conditions: L. monocytogenes
[9] = tested on: allergic contact dermatitis model; conditions: experimental allergic contact dermatitis model
[10] = tested on: Human dermal fibroblasts (HDFs); conditions: compared with vitamin C
[11] = ethosomal carriers, murine model
[12] = tested on: TNFA, IL1B and IL6 expression in human sebocytes
[13] = in vitro diffusion, human tissue
mice epidermis = conditions: topical application
human skin equivalents = conditions: compared with CBD
[14] = tested on: Interleukin-1β, -6, -8, tumor necrosis factor α release; conditions: inducers UVA, UVB, chemical, C. acnes
itching = conditions: murine models
[15] = lower CBD concentrations, 1-100 nM

Structure (SMILES): CCCCC/C=C\C/C=C\C/C=C\C/C=C\CCCC(=O)NCCO [AEA, N-arachidonoyl ethanolamide]
- apoptosis of human sebocytes (SZ95 sebocytes [1]; higher levels): induces apoptosis
- lipid production in human sebocytes (SZ95 sebocytes [2]; low concentrations): stimulate lipid production

Structure (SMILES): Cc1c(C(=O)NN2CCCCC2)nn(-c2ccc(Cl)cc2Cl)c1-c1ccc(I)cc1 [AM251]
- effect on the lipid synthesis-inhibitory (lipostatic) action of CBD (SZ95 sebocytes [2]): neither CB1- nor CB2-specific antagonists (AM251 and AM630) were able to antagonize

Structure (SMILES): COc1ccc(C(=O)c2c(C)n(CCN3CCOCC3)c3cc(I)ccc23)cc1 [AM630]
- effect on the lipid synthesis-inhibitory (lipostatic) action of CBD (SZ95 sebocytes [2]): neither CB1- nor CB2-specific antagonists (AM251 and AM630) were able to antagonize

Structure (SMILES): O=C(CCCCCCCC(=O)NCCO)NCCO [Adelmidrol]
- efficacy in mild AD (mild AD): effective in treating mild AD

Structure (SMILES): CC[C@H](C)[C@H](N)C1=N[C@H](C(=O)N[C@@H](CC(C)C)C(=O)N[C@H](CCC(=O)O)C(=O)N[C@H](C(=O)N[C@H]2CCCCNC(=O)[C@H](CC(N)=O)NC(=O)[C@@H](CC(=O)O)NC(=O)[C@H](Cc3cnc[nH]3)NC(=O)[C@@H](Cc3ccccc3)NC(=O)[C@H]([C@@H](C)CC)NC(=O)[C@@H](CCCN)NC2=O)[C@@H](C)CC)CS1 [BAC, Bacitracin] (HELM PEPTIDE1{[CC[C@H](C)[C@H](N)C1=N[C@H](C(=O)[*:2])CS1].L.[dE].I.K.[NCCC[C@@H](N[*:1])C(=O)[*:2]].I.[dF].H.[dD].N}$PEPTIDE1,PEPTIDE1,5:R3-11:R2$$$V2.0)
- reduction of MIC of BAC versus BAC alone ([3]; combined with ½ MIC of C3D): ≥ 64 fold
- reduction of MIC of BAC versus BAC alone ([4]; MRSA, combined with ½ MIC of C3D): ≥ 64 fold
- reduction of MIC of BAC versus BAC alone (Enterococcus faecalis; combined with ½ MIC of C3D): ≥ 64 fold

Structure (SMILES): C=C(C)[C@@H]1CCC(C)=C[C@H]1c1c(O)cc(CCCCC)cc1O [CBD, cannabidiol]
- basal lipogenesis in situ (human sebaceous glands): decreased basal lipogenesis
- expression of the proliferation marker MKI67 (human sebaceous glands): markedly suppressed
- lipogenic action of AEA in situ (human sebaceous glands): completely prevented
- Minimum Inhibitory Concentration (MIC) [3]: 8 µg/mL
- absorption after topical application [5]: well-absorbed
- expression of NRF2 target genes [6]: induced the expression of several NRF2 target genes
- cell number (SZ95 sebocytes [1]; 10 μM CBD, elongated application, 6-day treatments): decreased; also recorded: reduced
- cytotoxicity (SZ95 sebocytes [1]; 50 μM CBD): evoked apoptosis-driven cytotoxicity
- cellular viability, apoptosis, necrosis (SZ95 sebocytes [1]; CBD 1-10 μM): did not decrease cellular viability or induce either apoptosis or necrosis
- proliferation of SZ95 sebocytes (SZ95 sebocytes [1]; CBD 1-10 μM): significantly reduce
- intracellular calcium concentration ([Ca2+]IC) [7]: significantly increased
- membrane currents [8]: induced a mostly outwardly rectifying current and a positive shift in the reversal potential
- Minimum Inhibitory Concentration (MIC) (Listeria monocytogenes): 4 µg/mL
- peroxide-induced reduction of polyunsaturated fatty acids in the cell membrane (human keratinocytes): protective effect
- oxidative stress response (human keratinocytes; UVB irradiation and hydrogen peroxide): balance the oxidative stress response
- anti-inflammatory properties [9]: exhibit anti-inflammatory properties
- lipid synthesis induced by arachidonic acid (AA) (SZ95 sebocytes [2]): effectively inhibited
- lipid synthesis induced by the combination of linoleic acid and testosterone (LA-T) (SZ95 sebocytes [2]): effectively inhibited
- lipogenesis (SZ95 sebocytes [2]; 10 μM CBD, 6-day treatments): decreased
- lipogenesis (SZ95 sebocytes [2]; 50 μM CBD): decreased lipogenesis
- basal neutral (sebaceous) lipid synthesis (SZ95 sebocytes [2]; CBD 1-10 μM, 24-hour treatment): neither semiquantitative Oil Red O nor quantitative Nile Red staining indicated changes; also recorded: no changes
- inhibition of the lipogenic action of AEA (SZ95 sebocytes [2]; CBD 1-10 μM, dose-dependent): markedly inhibited; also recorded: quell the lipogenic actions in a dose-dependent manner
- AA-enhanced "pathological" lipogenesis (lipidome) (SZ95 sebocytes [2]; acne-like conditions with AA): almost completely normalized
- lipid synthesis induced by arachidonic acid (AA) (SZ95 sebocytes [2]; listed as CDI): inhibit extraneous lipid synthesis
- lipid synthesis induced by the combination of linoleic acid and testosterone (LA-T) (SZ95 sebocytes [2]; listed as CDI): inhibit extraneous lipid synthesis
- AA-induced lipid synthesis (SZ95 sebocytes [2]; [15]): did not influence
- basal lipid synthesis (SZ95 sebocytes [2]; [15]): did not influence
- activity against a variety of MRSA strains [4]: potent activity
- Minimum Inhibitory Concentration (MIC) ([4]; MRSA): 4 µg/mL
- reactive oxygen species levels [10]: reduce reactive oxygen species levels in HDFs better than vitamin C
- transdermal delivery [11]: successful transdermal delivery
- IL1B expression ([12]; LPS-induced): normalize
- IL6 expression ([12]; LPS-induced): normalize
- elevation of TNFA expression ([12]; induced by TLR2 activator lipoteichoic acid (LTA)): completely prevented
- elevation of TNFA expression ([12]; induced by TLR4 activator LPS): completely prevented
- elevation of TNFA expression ([12]; induced by pro-acne LA-T combination): prevent
- permeation [13]: demonstrated CBD's permeation potential
- Minimum Inhibitory Concentration (MIC) (Enterococcus faecalis): 8 µg/mL
- levels of HMOX1 and expression of keratins 16 and 17 (mice epidermis): increased

Structure (SMILES): CCCCCc1cc(O)c(C/C=C(\C)CCC=C(C)C)c(O)c1 [CBG, cannabigerol]
- genes regulated (human skin equivalents): regulates more genes than CBD
- pro-inflammatory cytokine release [14]: inhibits
- activity against a variety of MRSA strains [4]: potent activity
- reactive oxygen species levels [10]: reduce reactive oxygen species levels in HDFs better than vitamin C

Structure (SMILES): Cc1c(C(=O)Nc2cccc(C(F)(F)F)c2)cc(-c2ccccc2)n1CCCN1CCOCC1 [HC067047]
- effect on the CBD-induced increase of [Ca2+]IC [7]: antagonized
- basal lipid synthesis (SZ95 sebocytes [2]; TRPV4 antagonist alone): did not affect basal lipid synthesis
- effect on the lipid synthesis-inhibitory (lipostatic) action of CBD (SZ95 sebocytes [2]): prevented

Structure (SMILES): CCCCCCCCCCCCCCCC(=O)NCCO [PEA]
- itching (itching): reduce itching

Structure (SMILES): CCCCCc1cc(O)c2c(c1)OC(C)(C)[C@@H]1CCC(C)=C[C@@H]21 [THC, tetrahydrocannabinol]
- itching (itching): reduce itching

Structure (SMILES): COc1cc(CNC(=O)CCCC/C=C/C(C)C)ccc1O [capsaicin]
- lipostatic action by activation of TRPV1 (SZ95 sebocytes [2]): potent lipostatic actions

Structure (SMILES): N.N.N.N.N.N.N.N.N.N.N.N.N.N.[Cl-].[Cl-].[Cl-].[Cl-].[Cl-].[Cl-].[O-2].[O-2].[Ru+3].[Ru+3].[Ru+4] [ruthenium red]
- effect on the CBD-induced increase of [Ca2+]IC [7]: antagonized
